Like-named read-outs stand apart in the source and are kept apart here.
Legend:
[1] = molecular target: His-tagged KRAS G12D protein (Homo sapiens, UniProt P01116, G12D); assay: KRAS G12D TR-FRET Assay; assay type: binding
Procedure: KRAS G12D TR-FRET Assay Compounds of interest were prepared in a dose-response titration in DMSO, and 80 nL were added via Labcyte Echo to each well of a 384-well plate (Perkin Elmer 6008280). The His-tagged KRAS G12D protein (Amgen) was diluted to 20 nM in Assay Buffer (20 mM HEPES, pH 7.4, 10 mM MgCl2, 50 mM NaCl, 0.1% BSA, 0.01% Tween-20, 10 μM GDP) and 2 uL was added to the appropriate wells of the 384-well plate. The plate was incubated for 30 minutes at room temperature. Biotinylated KRPep-2d substrate (Amgen) was diluted to 20 nM in Assay Buffer and 2 μL was added to all wells and incubated for 1 hour at room temperature. Detection Reagent (0.4 nM LANCE Eu-W1024 Anti-6×-His (Perkin Elmer AD0401), 5 nM streptavidin-d2 (Cisbio 610SADLA)) was prepared in Assay Buffer, then 4 μL was added to the plate and incubated for 1 hour at room temperature. Plates were read using PerkinElmer EnVision (ex: 320 nm, em1: 665 nm, em2: 615 nm) and em1/em2 data was used to generate curve fits using a 4-parameter logistic model to calculate IC50 values.

[2] = molecular target: GDP-bound KRAS protein (aa 1-169), containing both G12D and C118A amino acid substitutions (Homo sapiens, UniProt P01116, C118A/G12D); assay: KRAS G12D Coupled Nucleotide Exchange Assay; assay type: biochemical
Procedure: KRAS G12D Coupled Nucleotide Exchange Assay
Following compound pre-incubation, purified SOS protein (aa 564-1049) and GTP (Roche 10106399001) were added to the assay wells and incubated for an additional 30 min. […] The assay plates were then read on a PerkinElmer EnVision Multilabel Reader, using AlphaScreen® technology, and data were analyzed using a 4-parameter logistic model to calculate IC50 values.

[3] = tested on: Phosphorylation of ERK1/2 in AsPC-1 cells; assay: Phospho-ERK1/2 MSD Assay; assay type: cell-based
Procedure: AsPC-1 (ATCC® CRL-1682™) cells were cultured in RPMI 1640 Medium (ThermoFisher Scientific 11875093) containing 10% fetal bovine serum (ThermoFisher Scientific 16000044) and Ix penicillin-streptomycin-glutamine (ThermoFisher Scientific 10378016). Sixteen hours prior to compound treatment, AsPC-1 cells were seeded in 96-well cell culture plates at a density of 25,000 cells/well and incubated at 37° C., 5% CO2. A compound dose-response titration was diluted in growth media, added to appropriate wells of a cell culture plate, and then incubated at 37° C., 5% CO2 for 2 h. Following compound treatment, cells were washed with ice-cold Dulbecco's phosphate-buffered saline, no Ca^2+ or Mg^2+ (ThermoFisher Scientific 14190144), and then lysed in RIPA buffer (50 mM Tris-HCl pH 7.5, 1% Igepal, 0.5% sodium deoxycholate, 150 mM NaCl, and 0.5% sodium dodecyl sulfate) containing protease inhibitors (Roche 4693132001) and phosphatase inhibitors (Roche 4906837001). Phosphorylation of ERK1/2 in compound-treated lysates was assayed using Phospho-ERK1/2 Whole Cell Lysate kits (Meso Scale Discovery K151DWD) according to the manufacturer's protocol. Assay plates were read on a Meso Scale Discovery Sector Imager 6000, and data were analyzed using a 4-parameter logistic model to calculate IC50 values.

[4] = Homo sapiens, ASPC1, 2 h, read-out: 2 h p-ERK (AsPC-1 cells), IC50, AsPC-1 cells, 2 h compound treatment
[5] = read-out: 2 h p-ERK (AsPC-1 cells), IC50, AsPC-1 cells, 2 h compound treatment

Chain of His-tagged KRAS G12D protein (P01116 1-188 isoform P01116-2 G12D): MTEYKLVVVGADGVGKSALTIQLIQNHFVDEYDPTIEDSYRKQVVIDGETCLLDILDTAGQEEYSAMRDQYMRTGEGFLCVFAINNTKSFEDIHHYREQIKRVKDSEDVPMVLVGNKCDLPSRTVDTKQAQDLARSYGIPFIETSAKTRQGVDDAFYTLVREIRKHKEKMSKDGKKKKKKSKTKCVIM
Chain of GDP-bound KRAS protein (aa 1-169), containing both G12D and C118A amino acid substitutions (P01116 1-169 isoform P01116-2 G12D/C118A): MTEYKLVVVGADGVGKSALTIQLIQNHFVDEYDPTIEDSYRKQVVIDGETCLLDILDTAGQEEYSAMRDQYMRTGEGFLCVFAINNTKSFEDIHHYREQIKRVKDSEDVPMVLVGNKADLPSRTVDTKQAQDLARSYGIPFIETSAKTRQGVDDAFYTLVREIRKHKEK

SMILES	IC50 [1] [nM]	IC50 [2] [nM]	IC50 [3, 4] [nM]	IC50 [3, 5] [nM]
CCc1c(F)ccc2cc(O)cc(-c3c(Cl)cc4c(N5CCC[C@@](C)(O)C5)nc(OC[C@@]56CCCN5C[C@H](F)C6)nc4c3F)c12 [Example 25, (3R)-1-(6-Chloro-7-(8-ethyl-7-fluoro-3-hydroxynaphthalen-1-yl)-8-fluoro-2-(((2R,7aS)-2-fluorotetrahydro-1H-pyrrolizin-7a(5H)-yl)methoxy)quinazolin-4-yl)-3-methylpiperidin-3-ol]	4	5	146	–
C/C=C\c1c(Cl)cc2[nH]ncc2c1-c1ccc2c(N3CCC[C@]4(CCO4)C3)nc(OC[C@@]34CCCN3C[C@H](F)C4)nc2c1F [Example 116, (4S)-6-(7-(6-Chloro-5-((Z)-prop-1-en-1-yl)-1H-indazol-4-yl)-8-fluoro-2-(((2R,7aS)-2-fluorotetrahydro-1H-pyrrolizin-7a(5H)-yl)methoxy)quinazolin-4-yl)-1-oxa-6-azaspiro[3.5]nonane]	3	2	59	–
CCc1c(F)ccc2cc(O)cc(-c3c(F)cc4c(N5CCC[C@@](C)(O)C5)nc(OC[C@@]56CCCN5C[C@H](F)C6)nc4c3F)c12 (single isomer, unassigned) [Example 2]	1	1	9	–
CCc1c(F)ccc2cc(O)cc(-c3ccc4c(N5CC6CC(O)C(C6)C5)nc(OC[C@@]56CCCN5C[C@H](F)C6)nc4c3F)c12 (single isomer, unassigned) [Example 15]	4	4	297	–
CCc1c(F)ccc2cc(N)cc(-c3c(F)cc4c(N5CCCC6(CCO6)C5)nc(OC[C@@]56CCCN5C[C@H](F)C6)nc4c3F)c12 (stereo partly drawn) [Example 75, 4-(6,8-Difluoro-2-(((2R,7aS)-2-fluorotetrahydro-1H-pyrrolizin-7a(5H)-yl)methoxy)-4-(1-oxa-6-azaspiro[3.5]nonan-6-yl)quinazolin-7-yl)-5-ethyl-6-fluoronaphthalen-2-amine]	154	9	500	–
C#Cc1c(F)ccc2cc(N)cc(-c3c(F)cc4c(N5CCOCC(C)(O)C5)nc(OC[C@@]56CCCN5C[C@H](F)C6)nc4c3F)c12 (stereo partly drawn) [Example 70, 4-(7-(3-Amino-8-ethynyl-7-fluoronaphthalen-1-yl)-6,8-difluoro-2-(((2R,7aS)-2-fluorotetrahydro-1H-pyrrolizin-7a(5H)-yl)methoxy)quinazolin-4-yl)-6-methyl-1,4-oxazepan-6-ol]	19	4	185	–
CCc1c(F)ccc2cc(O)cc(-c3c(F)cc4c(N5CCCC(O)(C(F)F)C5)nc(OC[C@@]56CCCN5C[C@H](F)C6)nc4c3F)c12 (single isomer, unassigned) [Example 20]	2	2	58	–
CCc1c(F)ccc2cc(N)cc(-c3c(F)cc4c(N5CCCC6(CNC(=O)O6)C5)nc(OC[C@@]56CCCN5C[C@H](F)C6)nc4c3F)c12 (stereo partly drawn) [Example 73, 7-(7-(3-Amino-8-ehtyl-7-fluoronaphthalen-1-yl)-6,8-difluoro-2-(((2R,7aS)-2-fluorotetrahydro-1H-pyrrolizin-7a(5H)-yl)methoxy)quinazolin-4-yl)-1-oxa-3,7-diazaspiro[4.5]decan-2-one]	2	1	90	–
CC1(O)COCCN(c2nc(OC[C@@]34CCCN3C[C@H](F)C4)nc3c(F)c(-c4cc(O)cc5ccc(F)c(F)c45)c(F)cc23)C1 (single isomer, unassigned) [Example 32]	5	3	25	–
CCc1c(F)ccc2cc(N)cc(-c3c(F)cc4c(N5CCOCC(C)(O)C5)nc(OC[C@@]56CCCN5C[C@H](F)C6)nc4c3F)c12 (single isomer, unassigned) [Example 72]	8	2	–	151
CCc1c(F)ccc2cc(N)cc(-c3c(F)cc4c(N5CCCC(O)(C(F)F)C5)nc(OC[C@@]56CCCN5C[C@H](F)C6)nc4c3F)c12 (stereo partly drawn) [Example 68, 1-(7-(3-Amino-8-ethyl-7-fluoronaphthalen-1-yl)-6,8-difluoro-2-(((2R,7aS)-2-fluorotetrahydro-1H-pyrrolizin-7a(5H)-yl)methoxy)quinazolin-4-yl)-3-(difluoromethyl)piperidin-3-ol]	436	23	1930	–
CCc1c(F)ccc2cc(O)cc(-c3c(F)cc4c(N5CCCC6(CNC(=O)O6)C5)nc(OC[C@@]56CCCN5C[C@H](F)C6)nc4c3F)c12 (single isomer, unassigned) [Example 56]	24	8	–	507
C[C@@]1(O)CCCN(c2nc(OC[C@@]34CCCN3C[C@H](F)C4)nc3c(F)c(-c4cc(N)cc(Cl)c4C(F)(F)F)ccc23)C1 [Example 60, (R)-1-(7-(5-Amino-3-chloro-2-(trifluoromethyl)phenyl)-8-fluoro-2-(((2R,7aS)-2-fluorotetrahydro-1H-pyrrolizin-7a(5H)-yl)methoxy)quinazolin-4-yl)-3-methylpiperidin-3-ol]	15	12	1170	–

Further lines, results first:

IC50 [1] [nM]	IC50 [2] [nM]	IC50 [3, 4] [nM]	IC50 [3, 5] [nM]	SMILES
1	1	5	–	C#Cc1cccc2cc(O)cc(-c3c(F)cc4c(N5CCC[C@@](C)(O)C5)nc(OC[C@@]56CCCN5C[C@H](F)C6)nc4c3F)c12 (single isomer, unassigned) [Example 12]
11	6	260	–	C#Cc1c(F)ccc2cc(N)cc(-c3ccc4c(N5CCC[C@@](C)(O)C5)nc(OC[C@@]56CCCN5C[C@H](F)C6)nc4c3F)c12 [Example 65, (R)-1-(7-(3-Amino-8-ethynyl-7-fluoronaphthalen-1-yl)-8-fluoro-2-(((2R,7aS)-2-fluorotetrahydro-1H-pyrrolizin-7a(5H)-yl)methoxy)quinazolin-4-yl)-3-methylpiperidin-3-ol]
3	3	303	–	CCc1c(F)ccc2cc(O)cc(-c3ccc4c(N5C[C@H](NC(=O)OC)CC(F)(F)C5)nc(OC[C@@]56CCCN5C[C@H](F)C6)nc4c3F)c12 [Example 5, Methyl ((R)-1-(7-(8-ethyl-7-fluoro-3-hydroxynaphthalen-1-yl)-8-fluoro-2-(((2R,7aS)-2-fluorotetrahydro-1H-pyrrolizin-7a(5H)-yl)methoxy)quinazolin-4-yl)-5,5-difluoropiperidin-3-yl)carbamate]
3	2	27	–	CC1(O)COCCN(c2nc(OC[C@@]34CCCN3C[C@H](F)C4)nc3c(F)c(-c4cc(O)cc5ccc(F)c(F)c45)ccc23)C1 (single isomer, unassigned) [Example 31]
12	11	812	–	Oc1cc(Cl)c(C2CC2)c(-c2ccc3c(N4CCCOCC4)nc(OC[C@@]45CCCN4C[C@H](F)C5)nc3c2F)c1 [Example 7, 3-Chloro-4-cyclopropyl-5-(8-fluoro-2-(((2R,7a.S)-2-fluorotetrahydro-1H-pyrrolizin-7a(5H)-yl)methoxy)-4-(1,4-oxazepan-4-yl)quinazolin-7-yl)phenol]
17	2	281	–	CCc1c(F)ccc2cc(N)cc(-c3c(F)cc4c(N5CCC[C@@](C)(O)C5)nc(OC[C@@]56CCCN5C[C@H](F)C6)nc4c3F)c12 (single isomer, unassigned) [Example 62]
5	2	24	–	C[C@@]1(O)COCCN(c2nc(OC[C@@]34CCCN3C[C@H](F)C4)nc3c(F)c(-c4cc(O)cc5ccc(F)c(Cl)c45)ccc23)C1 (single isomer, unassigned) [Example 82]

Source: patent US20250179077A1, “QUINAZOLINE COMPOUNDS AND USES THEREOF AS INHIBITORS OF MUTANT KRAS PROTEINS” (AMGEN INC., priority 2022, published 2025)
